“Also recorded” adds a separate entry of the source.
Test: Chemical stability of the API alone and in presence of excipients
Type: physicochemical
Description: Excipient selection/composition development was conducted in order to stabilize (trans)-N1-((1R,2S)-2-phenylcyclopropyl)cyclohexane-1,4-diamine in the final drug product to prevent its chemical degradation. (trans)-N1-((1R,2S)-2-phenylcyclopropyl)cyclohexane-1,4-diamine is very unstable in presence of excipients which are used to form a tablet composition. This is reflected by a decrease of the (trans)-N1-((1R,2S)-2-phenylcyclopropyl)cyclohexane-1,4-diamine content (assay) over time upon storage. The effect is more pronounced at elevated storage temperature.

SMILES: N[C@H]1CC[C@H](N[C@@H]2C[C@H]2c2ccccc2)CC1 [(trans)-N1-((1R,2S)-2-phenylcyclopropyl)cyclohexane-1,4-diamine]
- chemical stability as an API (API alone): chemically very stable
- stability in presence of excipients (in presence of excipients which are used to form a tablet composition, more pronounced at elevated storage temperature): very unstable; also recorded: decompose in presence of many excipients
